Assay results from PubChem BioAssay AID1918953 (Molecular Pharmacology Branch, DTP, NCI, 2023).
Values joined by “and” are separate entries in the source; they are usually repeats but may differ in a detail not shown here. Equal entries are not always repeated.

Tested on: MDA-MB-231 complex spheroid viability
Assay: Anticancer human tumor MDA-MB-231/ATCC cell line growth inhibition;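 note: drug exposure lasted 7 days starting on day 3 of spheroid growth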
Settings: for viability, T/C: stronger effect = lower value
Text: Multicellular complex tumor spheroid response to LSD1 Inhibitor Iadademstat in combination with a variety of drugs and investigational agents in selected tumor cell lines
The current study was undertaken to assess response to LSD1 inhibitors in combination with standard-of-care drugs and investigational agents in solid tumor complex spheroid models as well as in the K-562 leukemia. Complex spheroids include a stromal component modeled by human endothelial cells (HUVEC) and fibroblasts modeled by human mesenchymal stem cells (MSCs). The concentration ranges selected for each drug and investigational agent were based upon clinically achievable concentrations if the clinical Cmax of the agent was known.
Compounds. The drugs and investigational agents used in this study are listed on Table 1. All of the agents used, including staurosporine (NSC755774) and gemcitabine (NSC613327), were obtained from the Developmental Therapeutics Program, NCI. FDA-approved anticancer drugs are available from the NCI at http://dtp.nci.nih.gov/branches/dscb/oncology_drugset_explanation.html. Drugs and investigational agents were >95% pure by proton nuclear magnetic resonance (NMR) and liquid chromatography/mass spectrometry (LC/MS). Stock solutions were prepared at 400x in DMSO, stored at -70 degrees C, and diluted in fresh medium prior to their use. The final concentration of DMSO in cell culture wells never exceeded 0.25% (v/v). The FDA-approved anticancer drug set is available from the Developmental Therapeutics Program at https://dtp.cancer.gov/organization/dscb/obtaining/available_plates.htm. All drugs and investigational agents were tested over a range starting from a high concentration at or near the clinical Cmax and decreasing in half-log increments. If the clinical Cmax for an agent had not been determined, the highest concentration tested was 10 microM.
Cell Lines. The patient-derived cancer cell (PDC) lines: 292921-168-R-J2-PDC, K24384-001-R-PDC, and 521955-158-R2-J5-PDC pancreatic carcinomas, 556581-035-R-J1 ovarian carcinoma, 324938-238-R-J1-PDC, 855422-203-R-J1-PDC and 883617-216-R-J1-PDC urothelial bladder carcinomas, 743489-274-T-PDC renal cell carcinoma, 138582-R-J1 Merkel cell tumor, K60290-347-R-J1 and K57222-313-R-J1-PDC glioblastomas, 653999-131-R-J2-PDC, LG0703-F948-PDC, and 349418-098-R-PDC non-small cell lung carcinomas, 885512-296-R-J2-PDC, 171881-019-R-J1-PDC breast carcinomas and 186277-243-T-J2-PDC and 233499-124-R-J2-PDC colon carcinomas were obtained from the NCI Patient-Derived Models Repository (PDMR, https://pdmr.cancer.gov). The established cell lines NCI/ADR-RES (RRID:CVCL_14520 and OVCAR-5 (RRID:CVCL_1628) ovarian carcinomas, 786-O (RRID:CVCL_1051) and A498 (RRID:CVCL_A498) renal cell carcinoma, NCI-H211 (ATCC, cat. CRL-5824; RRID:CVCL_1529), NCI-H196 (ATCC, cat. CRL-5823, RRID:CVCL_1509), SW 1271 (ATCC, cat. CRL-2177, RRID:CVCL_1716) and NCI-H1876 (ATCC, cat. CRL-5902, RRID:CVCL_1503) small cell lung carcinomas, MDA-MB-231 (RRID:CVCL_0062) and MDA-MB-468 (RRID:CVCL_0419)breast carcinomas (10-12). Pooled donor human umbilical vein endothelial cells (HUVEC, Lonza, cat. CC-2519) and human mesenchymal stem cells (hMSC, Lonza, cat. PT-2501) were purchased from Lonza (Walkersville, MD).
Cell Culture. All cells were maintained in an incubator at 37 degrees C and 5% CO2 with 95% humidity. The PDC lines were cultured according to standard operating procedures established by the NCI PDMR (https://pdmr.cancer.gov). Briefly all PDCs were thawed and cultured in Matrigel-coated flasks prepared with a working solution of 1X Ham's F-12 nutrient mix, without supplementation (Invitrogen, Waltham, MA, cat. 11765054), 100 U/mL penicillin-streptomycin (Invitrogen, cat. 15140122), and 2.5% Matrigel (Corning Inc., Corning, NY, cat. 354248) for the first three passages. […]

[1] = curve of first compound, second compound 0.1 µM
[2] = curve of first compound, second compound 0.316 µM
[3] = curve of first compound, second compound 1 µM
[4] = curve of first compound, second compound 3.16 µM
[5] = curve of first compound, second compound 10 µM

Which IC50 [1] does the source give for CC(C)CC(NC(=O)CNC(=O)c1cc(Cl)ccc1Cl)B1OC(=O)CC(CC(=O)O)(C(=O)O)O1 (stereo unspecified) + NC1CC1c1ccc(-c2cccc(O)c2)cc1 here?
Its IC50 is 4.37 nM.

What about the IC50 [2] of the same molecule?
The IC50 was 3.09 nM.

What about the IC50 [3] of the same molecule?
Its IC50 is 2.35 nM.

And the IC50 [4]?
The IC50 was 2.49 nM.

What about the IC50 [5] of the same molecule?
The IC50 was 1.01 nM.

What about the viability, T/C (second compound 0.1 µM, first compound 0.000316 µM) of the same molecule?
The viability, T/C was 85.1%.

And the viability, T/C (second compound 0.1 µM, first compound 0.001 µM)?
Its viability, T/C is 93.9%.

What about the viability, T/C (second compound 0.1 µM, first compound 0.00316 µM) of the same molecule?
The viability, T/C was 62.9%.

What about the viability, T/C (second compound 0.1 µM, first compound 0.01 µM) of the same molecule?
The viability, T/C was 14.6%.

And the viability, T/C (second compound 0.1 µM, first compound 0.0316 µM)?
Its viability, T/C is 1.93%.

And the viability, T/C (second compound 0.1 µM, first compound 0.1 µM)?
Its viability, T/C is 1.29%.

What about the viability, T/C (second compound 0.316 µM, first compound 0.000316 µM) of the same molecule?
Its viability, T/C is 67.8%.

And the viability, T/C (second compound 0.316 µM, first compound 0.001 µM)?
The viability, T/C was 73.3%.

What about the viability, T/C (second compound 0.316 µM, first compound 0.00316 µM) of the same molecule?
The viability, T/C was 48.4%.

And the viability, T/C (second compound 0.316 µM, first compound 0.01 µM)?
Its viability, T/C is 11.8%.

What about the viability, T/C (second compound 0.316 µM, first compound 0.0316 µM) of the same molecule?
The viability, T/C was 0.83%.

And the viability, T/C (second compound 0.316 µM, first compound 0.1 µM)?
Its viability, T/C is 0.29%.

What about the viability, T/C (second compound 1 µM, first compound 0.000316 µM) of the same molecule?
Its viability, T/C is 61.7%.

What about the viability, T/C (second compound 1 µM, first compound 0.001 µM) of the same molecule?
Its viability, T/C is 66%.

What about the viability, T/C (second compound 1 µM, first compound 0.00316 µM) of the same molecule?
Its viability, T/C is 44.4%.

What about the viability, T/C (second compound 1 µM, first compound 0.01 µM) of the same molecule?
The viability, T/C was 13.8%.

What about the viability, T/C (second compound 1 µM, first compound 0.0316 µM) of the same molecule?
The viability, T/C was 0.95%.

What about the viability, T/C (second compound 1 µM, first compound 0.1 µM) of the same molecule?
The viability, T/C was 0.24%.

What about the viability, T/C (second compound 3.16 µM, first compound 0.000316 µM) of the same molecule?
Its viability, T/C is 61.8%.

And the viability, T/C (second compound 3.16 µM, first compound 0.001 µM)?
Its viability, T/C is 73.7%.

What about the viability, T/C (second compound 3.16 µM, first compound 0.00316 µM) of the same molecule?
Its viability, T/C is 43.4%.

What about the viability, T/C (second compound 3.16 µM, first compound 0.01 µM) of the same molecule?
Its viability, T/C is 12.7%.

And the viability, T/C (second compound 3.16 µM, first compound 0.0316 µM)?
The viability, T/C was 0.98%.

What about the viability, T/C (second compound 3.16 µM, first compound 0.1 µM) of the same molecule?
The viability, T/C was 0.37%.

What about the viability, T/C (second compound 10 µM, first compound 0.000316 µM) of the same molecule?
The viability, T/C was 48%.

And the viability, T/C (second compound 10 µM, first compound 0.001 µM)?
The viability, T/C was 55.2%.

And the viability, T/C (second compound 10 µM, first compound 0.00316 µM)?
Its viability, T/C is 30.4%.

And the viability, T/C (second compound 10 µM, first compound 0.01 µM)?
Its viability, T/C is 7.98%.

What about the viability, T/C (second compound 10 µM, first compound 0.0316 µM) of the same molecule?
Its viability, T/C is 0.83%.

What about the viability, T/C (second compound 10 µM, first compound 0.1 µM) of the same molecule?
Its viability, T/C is 0.27%.

For O=C(C=Cc1cccc(S(=O)(=O)Nc2ccccc2)c1)NO, which viability, T/C (compound 0.00949 µM) is on record?
The viability, T/C was 82.2% and 70.1%.

What about the viability, T/C (compound 0.03 µM) of the same molecule?
The viability, T/C was 62.3% and 50.3%.

What about the viability, T/C (compound 0.0949 µM) of the same molecule?
Its viability, T/C is 52.9% and 31.3%.

And the viability, T/C (compound 0.3 µM)?
The viability, T/C was 24.5% and 17.3%.

And the viability, T/C (compound 0.949 µM)?
Its viability, T/C is 13.2% and 0.72%.

What about the IC50 (curve of compound) of the same molecule?
Its IC50 is 81.6 nM and 30.6 nM.

Which IC50 [1] does the source give for CCc1c2c(nc3ccc(O)cc13)-c1cc3c(c(=O)n1C2)COC(=O)[C@]3(O)CC + NC1CCC(NC2CC2c2ccccc2)CC1 here?
The IC50 was less than 0.949 nM.

And the IC50 [2]?
Its IC50 is less than 0.949 nM.

What about the IC50 [3] of the same molecule?
The IC50 was less than 0.949 nM.

What about the IC50 [4] of the same molecule?
Its IC50 is less than 0.949 nM.

And the IC50 [5]?
The IC50 was less than 0.949 nM.

And the viability, T/C (second compound 0.1 µM, first compound 0.000949 µM)?
The viability, T/C was 17.1%.

And the viability, T/C (second compound 0.1 µM, first compound 0.003 µM)?
Its viability, T/C is 12.7%.

And the viability, T/C (second compound 0.1 µM, first compound 0.00949 µM)?
Its viability, T/C is 12%.

And the viability, T/C (second compound 0.1 µM, first compound 0.03 µM)?
The viability, T/C was 14%.

What about the viability, T/C (second compound 0.1 µM, first compound 0.0949 µM) of the same molecule?
Its viability, T/C is 5.37%.

What about the viability, T/C (second compound 0.1 µM, first compound 0.3 µM) of the same molecule?
The viability, T/C was 2.95%.

And the viability, T/C (second compound 0.316 µM, first compound 0.000949 µM)?
The viability, T/C was 17.7%.

And the viability, T/C (second compound 0.316 µM, first compound 0.003 µM)?
The viability, T/C was 13.5%.

And the viability, T/C (second compound 0.316 µM, first compound 0.00949 µM)?
The viability, T/C was 12%.

What about the viability, T/C (second compound 0.316 µM, first compound 0.03 µM) of the same molecule?
Its viability, T/C is 16%.

What about the viability, T/C (second compound 0.316 µM, first compound 0.0949 µM) of the same molecule?
The viability, T/C was 5.44%.

And the viability, T/C (second compound 0.316 µM, first compound 0.3 µM)?
Its viability, T/C is 2.86%.

And the viability, T/C (second compound 1 µM, first compound 0.000949 µM)?
The viability, T/C was 19.1%.

And the viability, T/C (second compound 1 µM, first compound 0.003 µM)?
The viability, T/C was 14.6%.

What about the viability, T/C (second compound 1 µM, first compound 0.00949 µM) of the same molecule?
Its viability, T/C is 13.7%.

What about the viability, T/C (second compound 1 µM, first compound 0.03 µM) of the same molecule?
Its viability, T/C is 15.5%.

What about the viability, T/C (second compound 1 µM, first compound 0.0949 µM) of the same molecule?
Its viability, T/C is 4.76%.

What about the viability, T/C (second compound 1 µM, first compound 0.3 µM) of the same molecule?
Its viability, T/C is 2.64%.

What about the viability, T/C (second compound 3.16 µM, first compound 0.000949 µM) of the same molecule?
Its viability, T/C is 17%.

And the viability, T/C (second compound 3.16 µM, first compound 0.003 µM)?
The viability, T/C was 15.3%.

And the viability, T/C (second compound 3.16 µM, first compound 0.00949 µM)?
The viability, T/C was 16.5%.

And the viability, T/C (second compound 3.16 µM, first compound 0.03 µM)?
The viability, T/C was 13.6%.

And the viability, T/C (second compound 3.16 µM, first compound 0.0949 µM)?
The viability, T/C was 4.18%.

What about the viability, T/C (second compound 3.16 µM, first compound 0.3 µM) of the same molecule?
Its viability, T/C is 1.91%.

And the viability, T/C (second compound 10 µM, first compound 0.000949 µM)?
Its viability, T/C is 13.9%.

And the viability, T/C (second compound 10 µM, first compound 0.003 µM)?
The viability, T/C was 14%.

What about the viability, T/C (second compound 10 µM, first compound 0.00949 µM) of the same molecule?
Its viability, T/C is 20.1%.

What about the viability, T/C (second compound 10 µM, first compound 0.03 µM) of the same molecule?
The viability, T/C was 13.4%.

And the viability, T/C (second compound 10 µM, first compound 0.0949 µM)?
Its viability, T/C is 3.42%.

What about the viability, T/C (second compound 10 µM, first compound 0.3 µM) of the same molecule?
Its viability, T/C is 1.8%.
